From ChEMBL document CHEMBL4422610, “HDAC as onco target: Reviewing the synthetic approaches with SAR study of their inhibitors” (Eur J Med Chem, 2018)

Experiments:
Histone deacetylase 8 = molecular target: T1, Histone deacetylase 8 (Homo sapiens, UniProt Q9BY41); test: Inhibition of human HDAC8 using fluorogenic HDAC substrate
T1 sequence (Q9BY41 whole entry): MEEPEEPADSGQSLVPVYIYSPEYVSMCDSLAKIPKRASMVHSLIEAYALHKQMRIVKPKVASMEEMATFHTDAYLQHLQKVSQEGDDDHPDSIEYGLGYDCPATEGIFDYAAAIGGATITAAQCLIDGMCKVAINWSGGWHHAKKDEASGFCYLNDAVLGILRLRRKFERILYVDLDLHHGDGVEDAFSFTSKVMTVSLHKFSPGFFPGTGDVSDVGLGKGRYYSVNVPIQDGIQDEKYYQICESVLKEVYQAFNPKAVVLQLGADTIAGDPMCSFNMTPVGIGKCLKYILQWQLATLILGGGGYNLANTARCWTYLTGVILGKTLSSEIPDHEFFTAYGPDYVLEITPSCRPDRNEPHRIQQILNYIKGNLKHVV

Histone deacetylase 9 = Histone deacetylase 9 (Homo sapiens, UniProt Q9UKV0); test: Inhibition of human HDAC9 using fluorogenic HDAC substrate
Histone deacetylase 9, sequence (Q9UKV0 whole entry): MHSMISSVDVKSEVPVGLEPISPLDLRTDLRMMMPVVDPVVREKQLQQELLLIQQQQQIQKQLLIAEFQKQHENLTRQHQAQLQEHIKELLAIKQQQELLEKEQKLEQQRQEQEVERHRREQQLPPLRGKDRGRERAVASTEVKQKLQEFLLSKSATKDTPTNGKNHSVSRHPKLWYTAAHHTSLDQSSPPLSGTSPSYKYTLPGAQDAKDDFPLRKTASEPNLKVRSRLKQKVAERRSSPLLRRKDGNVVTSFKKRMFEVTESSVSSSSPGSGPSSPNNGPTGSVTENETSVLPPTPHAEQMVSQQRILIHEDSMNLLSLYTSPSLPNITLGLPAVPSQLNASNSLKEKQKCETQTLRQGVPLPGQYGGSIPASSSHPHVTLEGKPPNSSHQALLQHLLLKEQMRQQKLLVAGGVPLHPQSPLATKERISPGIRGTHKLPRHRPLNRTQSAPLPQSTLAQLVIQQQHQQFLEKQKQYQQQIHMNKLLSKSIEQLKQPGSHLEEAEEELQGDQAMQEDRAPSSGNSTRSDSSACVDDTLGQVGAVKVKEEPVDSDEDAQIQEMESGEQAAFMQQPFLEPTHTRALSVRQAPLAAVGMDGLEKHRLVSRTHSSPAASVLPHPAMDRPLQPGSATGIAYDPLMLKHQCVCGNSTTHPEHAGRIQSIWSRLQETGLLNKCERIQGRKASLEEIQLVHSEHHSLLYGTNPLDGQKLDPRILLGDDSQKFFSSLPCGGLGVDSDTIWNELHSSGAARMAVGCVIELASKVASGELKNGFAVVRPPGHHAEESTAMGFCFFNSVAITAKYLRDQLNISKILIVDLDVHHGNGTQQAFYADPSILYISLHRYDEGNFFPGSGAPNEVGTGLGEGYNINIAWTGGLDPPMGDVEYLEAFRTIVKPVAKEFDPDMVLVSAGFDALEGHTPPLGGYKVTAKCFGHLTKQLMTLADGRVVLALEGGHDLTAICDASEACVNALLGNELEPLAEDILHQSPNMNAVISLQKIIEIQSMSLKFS

Histone deacetylase 3 = Histone deacetylase 3 (Homo sapiens, UniProt O15379); test: Inhibition of human HDAC3 using fluorogenic HDAC substrate
Histone deacetylase 3, sequence (O15379 whole entry): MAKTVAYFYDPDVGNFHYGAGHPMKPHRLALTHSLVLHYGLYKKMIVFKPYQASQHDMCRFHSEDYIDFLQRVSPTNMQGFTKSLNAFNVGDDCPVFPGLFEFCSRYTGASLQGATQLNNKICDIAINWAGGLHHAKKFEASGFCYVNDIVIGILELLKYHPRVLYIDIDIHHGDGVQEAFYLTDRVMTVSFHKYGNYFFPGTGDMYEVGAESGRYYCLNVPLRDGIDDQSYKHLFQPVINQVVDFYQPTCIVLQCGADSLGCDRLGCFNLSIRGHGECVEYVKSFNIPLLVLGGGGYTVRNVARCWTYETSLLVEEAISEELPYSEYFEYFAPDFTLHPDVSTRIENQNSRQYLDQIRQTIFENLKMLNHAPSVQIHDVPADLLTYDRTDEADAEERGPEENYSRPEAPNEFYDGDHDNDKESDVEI

Histone deacetylase 11 = molecular target: T2, Histone deacetylase 11 (Homo sapiens, UniProt Q96DB2); test: Inhibition of human HDAC11 using fluorogenic HDAC substrate
T2 sequence (Q96DB2 whole entry): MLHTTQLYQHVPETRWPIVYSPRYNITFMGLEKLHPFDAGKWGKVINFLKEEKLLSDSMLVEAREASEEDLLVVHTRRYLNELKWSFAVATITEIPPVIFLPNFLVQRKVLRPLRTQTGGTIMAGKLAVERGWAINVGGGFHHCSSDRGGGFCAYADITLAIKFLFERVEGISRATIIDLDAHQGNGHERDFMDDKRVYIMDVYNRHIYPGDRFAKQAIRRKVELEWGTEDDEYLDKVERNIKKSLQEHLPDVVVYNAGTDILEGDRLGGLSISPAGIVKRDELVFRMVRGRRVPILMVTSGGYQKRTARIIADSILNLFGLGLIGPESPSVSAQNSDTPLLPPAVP

[1] = molecular target: T3, Protein deacetylase HDAC6 (Homo sapiens, UniProt Q9UBN7); test: Inhibition of human HDAC6 using fluorogenic HDAC substrate
T3 sequence (Q9UBN7 whole entry): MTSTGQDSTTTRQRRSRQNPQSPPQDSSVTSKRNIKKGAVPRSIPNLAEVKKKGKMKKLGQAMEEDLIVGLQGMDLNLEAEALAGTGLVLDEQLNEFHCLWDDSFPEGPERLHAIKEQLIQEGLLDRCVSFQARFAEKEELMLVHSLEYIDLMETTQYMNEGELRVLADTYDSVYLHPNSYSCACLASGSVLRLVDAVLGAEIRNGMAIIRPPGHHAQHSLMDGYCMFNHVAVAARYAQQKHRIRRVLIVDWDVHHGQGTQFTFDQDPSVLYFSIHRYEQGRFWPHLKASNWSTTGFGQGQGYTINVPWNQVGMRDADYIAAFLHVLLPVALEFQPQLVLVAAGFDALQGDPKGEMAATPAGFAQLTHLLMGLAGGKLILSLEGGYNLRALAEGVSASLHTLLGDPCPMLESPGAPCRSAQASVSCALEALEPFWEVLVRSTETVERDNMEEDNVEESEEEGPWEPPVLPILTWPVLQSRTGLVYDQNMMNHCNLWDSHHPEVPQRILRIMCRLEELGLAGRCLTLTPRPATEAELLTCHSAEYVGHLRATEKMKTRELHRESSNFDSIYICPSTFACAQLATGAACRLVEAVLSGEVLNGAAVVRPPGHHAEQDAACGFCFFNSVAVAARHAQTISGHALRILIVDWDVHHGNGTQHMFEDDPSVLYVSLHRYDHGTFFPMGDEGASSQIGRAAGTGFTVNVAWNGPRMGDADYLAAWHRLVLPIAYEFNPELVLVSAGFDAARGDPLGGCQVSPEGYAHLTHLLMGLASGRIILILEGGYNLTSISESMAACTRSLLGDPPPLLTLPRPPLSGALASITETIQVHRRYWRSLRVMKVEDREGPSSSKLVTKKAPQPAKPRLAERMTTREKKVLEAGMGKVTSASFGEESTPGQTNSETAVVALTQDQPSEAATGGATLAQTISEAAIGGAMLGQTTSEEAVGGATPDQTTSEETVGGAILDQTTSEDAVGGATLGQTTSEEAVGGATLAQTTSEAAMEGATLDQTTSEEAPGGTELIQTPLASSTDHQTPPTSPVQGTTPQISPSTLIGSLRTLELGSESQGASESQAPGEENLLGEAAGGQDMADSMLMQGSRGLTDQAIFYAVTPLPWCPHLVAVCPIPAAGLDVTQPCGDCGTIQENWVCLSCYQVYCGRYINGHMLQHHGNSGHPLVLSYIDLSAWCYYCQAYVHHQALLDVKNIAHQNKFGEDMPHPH

Histone deacetylase 4 = Histone deacetylase 4 (Homo sapiens, UniProt P56524); test: Inhibition of human HDAC4 using fluorogenic HDAC substrate
Histone deacetylase 4, sequence (P56524 whole entry): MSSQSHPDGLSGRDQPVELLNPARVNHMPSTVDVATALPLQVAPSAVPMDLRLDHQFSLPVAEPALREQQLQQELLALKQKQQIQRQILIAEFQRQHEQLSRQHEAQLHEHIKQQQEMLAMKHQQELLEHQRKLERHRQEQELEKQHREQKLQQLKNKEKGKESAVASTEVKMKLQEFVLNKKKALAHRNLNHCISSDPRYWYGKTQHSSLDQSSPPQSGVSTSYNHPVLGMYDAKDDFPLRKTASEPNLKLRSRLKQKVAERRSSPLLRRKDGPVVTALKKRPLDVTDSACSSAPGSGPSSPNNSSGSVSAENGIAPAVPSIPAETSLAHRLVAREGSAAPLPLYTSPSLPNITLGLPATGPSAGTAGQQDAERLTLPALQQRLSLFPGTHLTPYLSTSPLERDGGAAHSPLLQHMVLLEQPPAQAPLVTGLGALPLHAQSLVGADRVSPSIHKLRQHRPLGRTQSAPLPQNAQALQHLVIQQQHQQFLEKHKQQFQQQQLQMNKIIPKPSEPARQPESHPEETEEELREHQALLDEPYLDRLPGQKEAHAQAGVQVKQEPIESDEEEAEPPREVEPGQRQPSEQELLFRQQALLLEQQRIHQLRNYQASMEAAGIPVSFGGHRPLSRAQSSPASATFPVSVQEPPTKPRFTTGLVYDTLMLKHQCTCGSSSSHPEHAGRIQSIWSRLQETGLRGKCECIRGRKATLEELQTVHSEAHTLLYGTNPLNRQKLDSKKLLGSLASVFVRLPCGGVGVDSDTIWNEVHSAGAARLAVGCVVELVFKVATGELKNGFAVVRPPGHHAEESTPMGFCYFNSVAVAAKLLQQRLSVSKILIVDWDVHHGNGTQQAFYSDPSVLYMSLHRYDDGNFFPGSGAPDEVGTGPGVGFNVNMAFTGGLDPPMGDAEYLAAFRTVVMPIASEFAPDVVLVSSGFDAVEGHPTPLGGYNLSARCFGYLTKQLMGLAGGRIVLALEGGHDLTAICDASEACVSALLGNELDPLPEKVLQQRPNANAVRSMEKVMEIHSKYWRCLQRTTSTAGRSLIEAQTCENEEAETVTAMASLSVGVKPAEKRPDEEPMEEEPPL

Histone deacetylase 7 = molecular target: T4, Histone deacetylase 7 (Homo sapiens, UniProt Q8WUI4); test: Inhibition of human HDAC7 using fluorogenic HDAC substrate
T4 sequence (Q8WUI4 whole entry): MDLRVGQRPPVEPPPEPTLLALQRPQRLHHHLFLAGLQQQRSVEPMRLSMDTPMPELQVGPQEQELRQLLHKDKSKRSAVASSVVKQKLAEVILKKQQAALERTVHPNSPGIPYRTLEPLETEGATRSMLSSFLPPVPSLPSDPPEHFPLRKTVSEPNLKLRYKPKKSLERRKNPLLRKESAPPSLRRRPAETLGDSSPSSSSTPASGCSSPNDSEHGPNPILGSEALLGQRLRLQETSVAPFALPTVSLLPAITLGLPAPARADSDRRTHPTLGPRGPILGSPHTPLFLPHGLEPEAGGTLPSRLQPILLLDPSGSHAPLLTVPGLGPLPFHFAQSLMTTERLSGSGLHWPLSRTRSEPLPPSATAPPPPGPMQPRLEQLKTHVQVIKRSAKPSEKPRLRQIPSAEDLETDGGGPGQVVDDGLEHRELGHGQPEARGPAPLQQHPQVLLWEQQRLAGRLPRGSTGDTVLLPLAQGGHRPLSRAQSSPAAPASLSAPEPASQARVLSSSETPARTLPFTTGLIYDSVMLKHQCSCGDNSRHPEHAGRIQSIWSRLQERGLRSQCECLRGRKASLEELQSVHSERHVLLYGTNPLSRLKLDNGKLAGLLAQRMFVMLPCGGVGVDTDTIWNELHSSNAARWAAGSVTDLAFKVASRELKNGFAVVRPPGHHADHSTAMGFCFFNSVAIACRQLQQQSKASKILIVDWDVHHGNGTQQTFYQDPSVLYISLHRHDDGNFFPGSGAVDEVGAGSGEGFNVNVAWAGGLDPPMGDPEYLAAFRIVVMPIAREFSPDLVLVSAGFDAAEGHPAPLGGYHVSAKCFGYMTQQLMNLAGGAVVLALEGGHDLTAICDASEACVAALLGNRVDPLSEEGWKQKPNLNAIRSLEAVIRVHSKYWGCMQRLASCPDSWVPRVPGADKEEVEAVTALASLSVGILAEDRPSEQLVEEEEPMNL

For O=C(NO)c1ccc(CN2c3ccccc3CC[C@@H]3CCCC[C@H]32)cc1, the IC50 (Histone deacetylase 8) was 2900 nM, the IC50 (Histone deacetylase 9) was 8900 nM and the IC50 (Histone deacetylase 3) was > 30000 nM. For the same compound, the IC50 (Histone deacetylase 11) was 540 nM, the IC50 [1] was 6 nM and the IC50 (Histone deacetylase 4) was > 30000 nM. The IC50 (Histone deacetylase 7) was > 30000 nM.
